The target in assay [1] is phospholipase C obtained from human thrombocytes. Description: In vitro test to determine the inhibition of phospholipase C obtained from human thrombocytes. The conditions noted are these: under the described test conditions. It is filed as biochemical. How it is done: Human thrombocytes are obtained from "Buffy coats" by fractional centrifugation and are then deep-frozen. The phospholipase C is freed by ultrasound treatment of the cell suspension and after ultracentrifugation (150,000×g for 1 hour) is present in soluble form in the supernatant.
In order to determine the enzyme activity, enzyme (20-100 μg of protein) is incubated at 37° for 5 minutes in 0.025M tris/maleate buffer pH 6 with the addition of 0.2 mmol of CaCl2 and 0.02 mmol of radioactively labelled substrate, phosphatidyl-[^14 C]-inositol. The reaction is stopped by shaking with CHCl3 /CH3 OH 2:1 (v/v), in the course of which unused substrate is extracted into the organic phase, while the reaction product, ^14 C-inositol phosphate, remains in the aqueous phase and can be measured by radiometry of an aliquot.
In order to detect an inhibitory action of test substances on phospholipase C, the test substances are added to the incubation mixture in the form of solutions in water, dimethyl sulfoxide (final concentration in the batch up to 5%, v/v) or ethanol (final concentration in the batch up to 2.5%, v/v). […] The IC50 is determined graphically by plotting the percentage inhibition on the ordinate against the log of the concentration (μm) on the abscissa.

In assay [2] the target is phospholipase A2 obtained from human leucocytes. Nature of the assay: In vitro test to determine the inhibition of phospholipase A2 obtained from human leucocytes. The format is biochemical. Particulars: under the described test conditions.
Description: Neutrophilic polymorpho-nuclear human leucocytes are isolated from "Buffy coats" by multi-step fractional sedimentation and are deep-frozen. The phospholipase A2 is extracted from the cell suspension by homogenisation with the addition of ice-cold 0.36N H2 SO4 in 2N NaCl and the supernatant obtained after centrifugation at 10,000×g is dialysed against sodium acetate buffer pH 4.5.
In order to determine the enzyme activity, enzyme (10-30 μg of protein) is incubated at 37° for 1 hour in 0.1M tris/HCl buffer pH 7 with the addition of 1 mmol of CaCl2 and substrate consisting of phospholipids (2 μm) of Escherichia coli radioactively labelled biosynthetically with ^14 C-oleic acid. The reaction is stopped by the addition of Dole reagent (isopropanol/heptane/1N H2 SO4 40:10:1, v/v) and the ^14 C-oleic acid freed selectively by phospholipase A2 is extracted. […]
In order to detect an inhibitory action of test substances on phospholipase A2, the test substances are added to the incubation mixture in the form of solutions in water, dimethyl sulfoxide (final concentration in the batch up to 5%, v/v) or ethanol (final concentration in the batch up to 2.5%, v/v). […] The IC50 is determined graphically by plotting the percentage inhibition on the ordinate against the log of the concentration (μm) on the abscissa.

Results on one molecule are retold here after patent publication US5149717A, “Alkanophenones useful for treating allergies” (Ciba-Geigy Corporation, priority 1988, dated 1992).

A word on the IC50: it is the concentration that inhibits the measured activity by half.

Molecules are shown by their SMILES. Structures can show the parent of a compound that is named as a salt.

As for `CCN(CC)CCCC(C)Nc1c2ccc(Cl)cc2nc2ccc(OC)cc12` (centres unmarked) [MEPACRINE, quinacrin hydrochloride], the values for the IC50 in assay [1] and in assay [2] were 20 µM and 1600 µM, respectively.
